From patent US11629143B2, “HipK4 inhibitors and uses thereof” (Vibliome Therapeutics, LLC, priority 2020, dated 2023)

Columns and labels:
Assay in all cases: Kinase panel (mobility shift)
Format in all cases: biochemical
AXL = molecular target: T1, AXL (Homo sapiens, UniProt P30530)
T1 sequence (P30530 26-894): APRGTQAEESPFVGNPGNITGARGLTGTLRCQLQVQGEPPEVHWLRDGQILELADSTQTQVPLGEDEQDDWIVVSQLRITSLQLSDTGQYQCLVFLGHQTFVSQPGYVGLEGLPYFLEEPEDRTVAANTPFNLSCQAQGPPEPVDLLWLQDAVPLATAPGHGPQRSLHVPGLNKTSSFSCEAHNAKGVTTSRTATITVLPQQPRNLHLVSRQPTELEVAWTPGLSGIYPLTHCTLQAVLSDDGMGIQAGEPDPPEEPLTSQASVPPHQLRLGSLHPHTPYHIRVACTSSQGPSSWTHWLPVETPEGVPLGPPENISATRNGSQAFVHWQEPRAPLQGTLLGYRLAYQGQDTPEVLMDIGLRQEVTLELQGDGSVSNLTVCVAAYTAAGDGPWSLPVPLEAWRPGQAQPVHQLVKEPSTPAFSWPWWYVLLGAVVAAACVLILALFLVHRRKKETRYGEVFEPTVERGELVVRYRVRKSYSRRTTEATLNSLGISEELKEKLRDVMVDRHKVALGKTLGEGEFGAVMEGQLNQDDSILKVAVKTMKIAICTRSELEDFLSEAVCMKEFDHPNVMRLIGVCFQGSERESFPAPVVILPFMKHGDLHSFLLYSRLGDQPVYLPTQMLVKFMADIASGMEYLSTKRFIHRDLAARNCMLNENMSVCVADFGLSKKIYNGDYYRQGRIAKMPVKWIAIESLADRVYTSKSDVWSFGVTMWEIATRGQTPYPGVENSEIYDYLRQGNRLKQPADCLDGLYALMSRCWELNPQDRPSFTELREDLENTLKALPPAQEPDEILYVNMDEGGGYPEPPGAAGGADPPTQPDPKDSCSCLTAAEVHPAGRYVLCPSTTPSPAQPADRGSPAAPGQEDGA
Procedure: (§1) The disclosed compounds were tested for activity against a panel of 299 kinases. The target enzyme was incubated with fluorescently labeled substrate and test compounds in a standardized reaction mixture in 384 well plates. Upon termination of the reaction, samples were introduced onto microfluidic chips. The samples migrated through channels in the chips and product and substrate were separated based on the difference in their charge (electrophoretic mobility shift). Enzyme activity was measured by direct comparison of the fluorescence in the product and substrate peaks. […] In the tables A=95% or greater at 5 um, B=90%-94% at 5 um, and C=80%-89% at 5 um. [note to draft: we included category D for 50-79 and category E is less than 50%. Feel free to remove if not needed)

BRK = BRK (Homo sapiens, UniProt Q13882)
Procedure: as §1

EPH-A4 = EPH-A4 (Homo sapiens, UniProt P54764)
EPH-A4, sequence (P54764 20-986, species assumed): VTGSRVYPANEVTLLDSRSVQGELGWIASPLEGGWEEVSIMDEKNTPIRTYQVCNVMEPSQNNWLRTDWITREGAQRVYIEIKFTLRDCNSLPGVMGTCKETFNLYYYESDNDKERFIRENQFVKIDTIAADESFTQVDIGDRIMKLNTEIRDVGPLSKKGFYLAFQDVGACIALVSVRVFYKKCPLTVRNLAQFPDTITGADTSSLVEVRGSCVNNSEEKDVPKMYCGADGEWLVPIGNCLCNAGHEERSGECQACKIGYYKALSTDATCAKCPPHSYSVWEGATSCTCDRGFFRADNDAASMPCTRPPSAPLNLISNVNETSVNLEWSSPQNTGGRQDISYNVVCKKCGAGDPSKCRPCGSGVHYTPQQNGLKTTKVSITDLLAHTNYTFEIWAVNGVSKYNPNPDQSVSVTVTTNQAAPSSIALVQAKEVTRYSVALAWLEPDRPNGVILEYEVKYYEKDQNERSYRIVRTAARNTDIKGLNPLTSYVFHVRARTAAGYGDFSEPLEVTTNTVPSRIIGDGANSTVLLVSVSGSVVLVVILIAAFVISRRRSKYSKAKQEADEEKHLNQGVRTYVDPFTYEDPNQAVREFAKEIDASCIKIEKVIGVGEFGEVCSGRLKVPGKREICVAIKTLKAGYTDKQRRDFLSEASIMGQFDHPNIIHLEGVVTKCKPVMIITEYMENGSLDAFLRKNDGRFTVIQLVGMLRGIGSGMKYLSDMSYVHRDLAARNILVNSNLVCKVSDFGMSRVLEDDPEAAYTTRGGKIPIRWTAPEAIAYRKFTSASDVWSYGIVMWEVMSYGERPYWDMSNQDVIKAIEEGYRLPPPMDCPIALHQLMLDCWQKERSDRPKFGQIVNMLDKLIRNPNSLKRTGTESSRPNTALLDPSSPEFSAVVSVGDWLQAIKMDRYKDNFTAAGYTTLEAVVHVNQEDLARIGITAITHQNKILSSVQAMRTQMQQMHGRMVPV
Procedure: as §1

HIPK3 = HIPK3 (Homo sapiens, UniProt Q9H422)
HIPK3, sequence (Q9H422 whole entry, species assumed): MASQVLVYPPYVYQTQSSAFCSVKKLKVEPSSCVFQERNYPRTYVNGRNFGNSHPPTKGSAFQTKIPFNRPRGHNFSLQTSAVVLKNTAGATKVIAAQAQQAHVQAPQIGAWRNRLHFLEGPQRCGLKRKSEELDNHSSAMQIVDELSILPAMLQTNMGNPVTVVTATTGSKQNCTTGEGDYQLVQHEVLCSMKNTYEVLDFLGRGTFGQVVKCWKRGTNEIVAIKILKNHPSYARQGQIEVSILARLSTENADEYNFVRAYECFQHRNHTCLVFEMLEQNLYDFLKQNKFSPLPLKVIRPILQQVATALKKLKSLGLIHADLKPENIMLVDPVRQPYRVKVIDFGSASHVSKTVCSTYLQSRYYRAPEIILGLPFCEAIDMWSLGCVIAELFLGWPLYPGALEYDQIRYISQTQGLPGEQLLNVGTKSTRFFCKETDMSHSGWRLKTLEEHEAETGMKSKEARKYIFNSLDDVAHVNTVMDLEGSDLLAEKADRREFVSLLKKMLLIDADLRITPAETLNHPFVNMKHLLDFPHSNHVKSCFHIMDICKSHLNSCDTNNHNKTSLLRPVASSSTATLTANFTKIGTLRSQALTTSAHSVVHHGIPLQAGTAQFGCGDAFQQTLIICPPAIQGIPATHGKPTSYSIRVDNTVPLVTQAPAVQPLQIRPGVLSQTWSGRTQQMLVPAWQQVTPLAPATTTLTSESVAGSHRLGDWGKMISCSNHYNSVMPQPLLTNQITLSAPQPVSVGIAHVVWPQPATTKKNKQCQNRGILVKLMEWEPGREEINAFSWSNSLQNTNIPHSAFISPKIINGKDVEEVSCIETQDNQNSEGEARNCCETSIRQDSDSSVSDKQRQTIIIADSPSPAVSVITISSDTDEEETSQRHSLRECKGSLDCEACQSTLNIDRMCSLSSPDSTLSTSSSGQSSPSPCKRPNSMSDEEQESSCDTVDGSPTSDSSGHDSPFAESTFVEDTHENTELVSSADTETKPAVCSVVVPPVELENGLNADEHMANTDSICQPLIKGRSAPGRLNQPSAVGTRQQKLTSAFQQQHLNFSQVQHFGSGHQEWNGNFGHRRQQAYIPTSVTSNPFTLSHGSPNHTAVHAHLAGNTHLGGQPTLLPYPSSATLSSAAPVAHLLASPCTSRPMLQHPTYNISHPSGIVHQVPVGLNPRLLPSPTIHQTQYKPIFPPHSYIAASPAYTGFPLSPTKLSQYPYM
Procedure: as §1

KIT = KIT (Homo sapiens, UniProt P10721)
KIT, sequence (P10721 26-976, species assumed): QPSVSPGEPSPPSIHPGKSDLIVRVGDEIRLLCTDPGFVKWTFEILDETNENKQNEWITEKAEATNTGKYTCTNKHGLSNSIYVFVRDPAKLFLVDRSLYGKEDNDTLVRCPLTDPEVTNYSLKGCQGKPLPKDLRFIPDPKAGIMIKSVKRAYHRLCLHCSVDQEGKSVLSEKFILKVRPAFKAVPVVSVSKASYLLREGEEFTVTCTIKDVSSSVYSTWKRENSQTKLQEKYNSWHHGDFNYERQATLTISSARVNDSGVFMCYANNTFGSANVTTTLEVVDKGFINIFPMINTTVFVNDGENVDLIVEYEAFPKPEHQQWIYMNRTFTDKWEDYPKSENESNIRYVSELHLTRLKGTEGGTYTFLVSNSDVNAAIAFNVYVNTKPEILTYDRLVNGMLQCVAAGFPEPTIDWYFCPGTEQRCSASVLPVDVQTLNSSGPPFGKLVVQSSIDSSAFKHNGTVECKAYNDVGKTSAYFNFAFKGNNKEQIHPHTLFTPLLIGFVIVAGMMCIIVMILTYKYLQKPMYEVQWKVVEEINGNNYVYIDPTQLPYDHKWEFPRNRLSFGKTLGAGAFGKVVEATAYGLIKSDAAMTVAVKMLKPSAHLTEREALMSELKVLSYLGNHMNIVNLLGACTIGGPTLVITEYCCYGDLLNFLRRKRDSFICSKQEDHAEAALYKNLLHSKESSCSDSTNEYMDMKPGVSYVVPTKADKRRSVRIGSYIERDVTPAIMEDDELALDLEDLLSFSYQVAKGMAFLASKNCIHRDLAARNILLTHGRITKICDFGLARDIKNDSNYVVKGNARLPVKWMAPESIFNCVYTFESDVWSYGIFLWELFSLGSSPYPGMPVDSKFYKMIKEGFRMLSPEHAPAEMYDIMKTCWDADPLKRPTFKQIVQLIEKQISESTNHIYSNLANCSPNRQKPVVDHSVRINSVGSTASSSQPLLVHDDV
Procedure: as §1

LCK = LCK (Homo sapiens, UniProt P06239)
LCK, sequence (P06239 whole entry, species assumed): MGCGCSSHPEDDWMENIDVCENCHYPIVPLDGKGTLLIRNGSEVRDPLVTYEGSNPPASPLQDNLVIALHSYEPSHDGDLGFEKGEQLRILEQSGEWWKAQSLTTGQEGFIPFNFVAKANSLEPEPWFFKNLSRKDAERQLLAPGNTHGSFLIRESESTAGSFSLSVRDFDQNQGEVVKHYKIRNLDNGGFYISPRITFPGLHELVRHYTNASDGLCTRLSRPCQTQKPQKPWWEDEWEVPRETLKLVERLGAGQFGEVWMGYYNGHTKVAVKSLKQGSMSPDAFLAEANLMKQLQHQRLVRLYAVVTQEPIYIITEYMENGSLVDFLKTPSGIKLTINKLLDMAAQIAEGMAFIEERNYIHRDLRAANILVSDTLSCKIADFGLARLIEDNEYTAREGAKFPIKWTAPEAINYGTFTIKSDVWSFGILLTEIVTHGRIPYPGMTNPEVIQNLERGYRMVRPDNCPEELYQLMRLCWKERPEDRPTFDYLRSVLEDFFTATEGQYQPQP
Procedure: as §1

MUSK = molecular target: T2, MUSK (Homo sapiens, UniProt O15146)
T2 sequence (O15146 24-869): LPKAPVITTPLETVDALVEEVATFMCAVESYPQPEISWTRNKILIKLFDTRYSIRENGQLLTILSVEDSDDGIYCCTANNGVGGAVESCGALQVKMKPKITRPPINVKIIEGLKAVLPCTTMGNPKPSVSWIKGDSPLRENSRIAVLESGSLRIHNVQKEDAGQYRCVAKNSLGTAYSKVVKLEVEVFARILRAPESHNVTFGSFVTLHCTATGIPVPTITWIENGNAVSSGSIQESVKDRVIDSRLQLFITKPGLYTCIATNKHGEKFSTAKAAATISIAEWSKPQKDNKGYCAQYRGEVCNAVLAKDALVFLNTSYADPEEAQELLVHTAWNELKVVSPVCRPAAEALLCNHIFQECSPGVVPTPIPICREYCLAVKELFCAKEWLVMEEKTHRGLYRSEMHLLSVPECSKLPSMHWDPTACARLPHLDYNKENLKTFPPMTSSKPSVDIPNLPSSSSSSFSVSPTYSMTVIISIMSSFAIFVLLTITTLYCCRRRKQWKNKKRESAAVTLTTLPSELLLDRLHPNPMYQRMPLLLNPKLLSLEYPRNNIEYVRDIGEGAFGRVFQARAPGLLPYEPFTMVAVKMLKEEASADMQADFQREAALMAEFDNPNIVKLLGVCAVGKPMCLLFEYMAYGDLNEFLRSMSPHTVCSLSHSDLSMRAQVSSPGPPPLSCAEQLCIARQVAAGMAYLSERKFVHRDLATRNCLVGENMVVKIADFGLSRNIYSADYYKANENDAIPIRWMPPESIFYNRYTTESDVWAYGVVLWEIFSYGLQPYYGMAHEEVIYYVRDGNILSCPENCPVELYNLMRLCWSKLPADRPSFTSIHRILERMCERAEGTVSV
Procedure: as §1

PDGFR-b = PDGFR-b (Homo sapiens, UniProt P09619)
Procedure: as §1

SRC = SRC (Homo sapiens, UniProt P12931)
SRC, sequence (P12931 whole entry, species assumed): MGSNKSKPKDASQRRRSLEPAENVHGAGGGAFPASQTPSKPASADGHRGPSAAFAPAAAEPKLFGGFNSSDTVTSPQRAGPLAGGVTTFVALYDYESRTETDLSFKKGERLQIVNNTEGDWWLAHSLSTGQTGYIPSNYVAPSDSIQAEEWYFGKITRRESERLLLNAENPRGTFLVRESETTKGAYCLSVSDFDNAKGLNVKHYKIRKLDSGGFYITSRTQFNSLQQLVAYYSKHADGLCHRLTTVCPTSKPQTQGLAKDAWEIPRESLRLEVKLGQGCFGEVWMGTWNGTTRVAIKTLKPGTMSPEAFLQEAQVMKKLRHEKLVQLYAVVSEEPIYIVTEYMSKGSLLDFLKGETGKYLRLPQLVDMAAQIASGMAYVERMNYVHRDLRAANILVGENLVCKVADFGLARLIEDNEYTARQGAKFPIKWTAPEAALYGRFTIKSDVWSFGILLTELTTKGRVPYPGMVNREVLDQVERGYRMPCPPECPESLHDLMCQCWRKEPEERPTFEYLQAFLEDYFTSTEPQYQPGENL
Procedure: as §1

TRKA = TRKA (Homo sapiens, UniProt P04629)
TRKA, sequence (P04629 33-796, species assumed): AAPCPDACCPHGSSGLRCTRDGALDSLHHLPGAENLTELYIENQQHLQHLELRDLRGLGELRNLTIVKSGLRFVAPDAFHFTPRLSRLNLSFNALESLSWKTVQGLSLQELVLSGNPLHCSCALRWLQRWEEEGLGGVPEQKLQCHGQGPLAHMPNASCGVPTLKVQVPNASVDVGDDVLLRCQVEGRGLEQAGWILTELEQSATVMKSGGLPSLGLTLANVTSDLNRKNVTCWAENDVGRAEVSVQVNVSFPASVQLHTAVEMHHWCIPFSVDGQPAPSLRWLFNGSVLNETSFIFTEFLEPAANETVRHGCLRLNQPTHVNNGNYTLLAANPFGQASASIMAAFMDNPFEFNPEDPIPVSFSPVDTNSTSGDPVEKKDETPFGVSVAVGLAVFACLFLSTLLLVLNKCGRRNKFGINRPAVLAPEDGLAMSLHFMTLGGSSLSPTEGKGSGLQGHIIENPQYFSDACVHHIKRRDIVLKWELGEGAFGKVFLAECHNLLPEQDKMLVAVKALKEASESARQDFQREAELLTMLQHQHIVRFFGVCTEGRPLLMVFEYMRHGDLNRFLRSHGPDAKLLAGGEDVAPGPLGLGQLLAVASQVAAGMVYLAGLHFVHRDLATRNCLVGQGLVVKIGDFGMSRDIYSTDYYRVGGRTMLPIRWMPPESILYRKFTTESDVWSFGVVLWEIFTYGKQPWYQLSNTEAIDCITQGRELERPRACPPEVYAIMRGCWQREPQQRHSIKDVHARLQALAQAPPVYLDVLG
Procedure: as §1

inhibition at 5 µM (AXL) [%]	inhibition at 5 µM (BRK) [%]	inhibition at 5 µM (EPH-A4) [%]	inhibition at 5 µM (HIPK3) [%]	inhibition at 5 µM (KIT) [%]	inhibition at 5 µM (LCK) [%]	inhibition at 5 µM (MUSK) [%]	inhibition at 5 µM (PDGFR-b) [%]	inhibition at 5 µM (SRC) [%]	inhibition at 5 µM (TRKA) [%]	Structure (SMILES)
< 50	80 to 89	50 to 79	50 to 79	50 to 79	50 to 79	50 to 79	< 50	< 50	80 to 89	CNC(=O)c1cc(Oc2ccc(NC(=O)c3nc(NC)oc3-c3ccc(F)cc3)cc2F)ccn1 [Compound 14]
50 to 79	50 to 79	50 to 79	50 to 79	50 to 79	50 to 79	< 50	< 50	< 50	50 to 79	CNC(=O)c1cc(Oc2ccc(NC(=O)c3nc(OC)oc3-c3ccc(F)cc3)cc2F)ccn1 [Compound 15]
< 50	< 50	< 50	< 50	< 50	< 50	< 50	< 50	< 50	< 50	CNC(=O)c1cc(Oc2ccc(NC(=O)c3nc(SC)oc3-c3ccc(F)s3)cc2F)ccn1 [Compound 16]
< 50	< 50	< 50	< 50	< 50	< 50	< 50	< 50	< 50	50 to 79	CNC(=O)c1cc(Oc2ccc(NC(=O)c3nc(NC)oc3-c3ccc(F)s3)cc2F)ccn1 [Compound 17]
< 50	50 to 79	50 to 79	< 50	50 to 79	50 to 79	< 50	< 50	< 50	50 to 79	CNC(=O)c1cc(Oc2c(F)cc(NC(=O)c3nc(NC)sc3-c3ccc(F)cc3)cc2F)ccn1 [Compound 19]

Further lines, the molecule ahead of its results:

Structure (SMILES)	inhibition at 5 µM (AXL) [%]	inhibition at 5 µM (BRK) [%]	inhibition at 5 µM (EPH-A4) [%]	inhibition at 5 µM (HIPK3) [%]	inhibition at 5 µM (KIT) [%]	inhibition at 5 µM (LCK) [%]	inhibition at 5 µM (MUSK) [%]	inhibition at 5 µM (PDGFR-b) [%]	inhibition at 5 µM (SRC) [%]	inhibition at 5 µM (TRKA) [%]
CSc1nc(C(=O)Nc2ccc(Oc3ccnc(N)c3Cl)c(F)c2)c(-c2ccc(F)cc2)o1 [Compound 1]	< 50	50 to 79	< 50	< 50	< 50	< 50	< 50	< 50	< 50	< 50
CSc1nc(C(=O)Nc2ccc(Oc3cc4cnn(C)c4cc3Br)c(F)c2)c(-c2ccc(F)cc2)o1 [Compound 2]	< 50	< 50	50 to 79	< 50	< 50	< 50	< 50	< 50	< 50	< 50
CNC(=O)c1cc(Oc2ccc(NC(=O)c3nc(SC)oc3-c3ccc(F)cc3Cl)cc2)ccn1 [Compound 3]	80 to 89	90 to 94	< 50	< 50	50 to 79	≥ 95	50 to 79	< 50	80 to 89	80 to 89
CNC(=O)c1cc(Oc2ccc(NC(=O)c3nc(SC)oc3-c3ccc(F)c(F)c3)cc2)ccn1 [Compound 4]	< 50	50 to 79	< 50	50 to 79	50 to 79	80 to 89	< 50	< 50	< 50	50 to 79
CNC(=O)c1cc(Oc2ccc(NC(=O)c3nc(SC)oc3-c3ccc(Cl)s3)cc2)ccn1 [Compound 5]	< 50	50 to 79	< 50	< 50	< 50	50 to 79	< 50	< 50	< 50	< 50
CNC(=O)c1cc(Oc2ccc(NC(=O)c3nc(SC)oc3-c3ccc(F)cc3F)cc2)ccn1 [Compound 6]	80 to 89	≥ 95	< 50	< 50	80 to 89	≥ 95	< 50	< 50	80 to 89	80 to 89
CNC(=O)c1cc(Oc2ccc(NC(=O)c3nc(SC)oc3-c3ccc(OC)cc3)cc2)ccn1 [Compound 7]	< 50	< 50	< 50	< 50	< 50	≥ 95	< 50	< 50	< 50	< 50
CSc1nc(C(=O)Nc2ccc(Oc3ccnc(-c4cnn(C)c4)c3)c(F)c2)c(-c2ccc(F)cc2)o1 [Compound 11]	90 to 94	≥ 95	90 to 94	< 50	80 to 89	90 to 94	50 to 79	< 50	50 to 79	50 to 79
CNC(=O)c1cc(Oc2ccc(NC(=O)c3nc(SC)oc3-c3ccc(F)cc3F)cc2F)ccn1 [Compound 12]	50 to 79	≥ 95	50 to 79	50 to 79	50 to 79	≥ 95	50 to 79	< 50	50 to 79	80 to 89
CNC(=O)c1cc(Oc2ccc(NC(=O)c3nc(S(C)(=O)=O)sc3-c3ccc(F)cc3)cc2F)ccn1 [Compound 13]	80 to 89	50 to 79	50 to 79	80 to 89	< 50	90 to 94	50 to 79	< 50	< 50	50 to 79
